Reference: US8426447B2, “Spiro-tricyclic ring compounds as beta-secretase modulators and methods of use” (Amgen Inc., priority 2008, dated 2013)
Read-outs that look alike come from different tables or passages of the source.

Molecular target: BACE1 (Homo sapiens, UniProt P56817)
Experiment: In Vitro Enzymatic BACE FRET (Fluorescence Resonance Energy Transfer) Assay
Type: biochemical
Conditions: read-out: BACE1 FRET assay
Experimental: In Vitro Enzymatic BACE FRET (Fluorescence Resonance Energy Transfer) Assay (Enzyme Assay Data in the Example Tables I, II, III & IV) The assay buffer used in this screen is 0.05 M acetate, pH 4.2, 10% DMSO final, 100 uM genapol (which is a nonionic detergent, below its Critical Micelle Concentration). […] This assay is effectively started by the addition of FRET substrate (50 nM) and the combination is incubated for one hour. The FRET assay is terminated with by addition of Tris buffer, which raises the pH to neutrality, and the fluorescence is determined. The FRET substrate is a peptide with commercially available fluorophore and quencher, on opposite sides of the BACE cleavage site. […]

[1] = in vitro BACE FRET enzyme assay, IC50 class symbols

Chain of BACE1 (P56817 46-501, species assumed): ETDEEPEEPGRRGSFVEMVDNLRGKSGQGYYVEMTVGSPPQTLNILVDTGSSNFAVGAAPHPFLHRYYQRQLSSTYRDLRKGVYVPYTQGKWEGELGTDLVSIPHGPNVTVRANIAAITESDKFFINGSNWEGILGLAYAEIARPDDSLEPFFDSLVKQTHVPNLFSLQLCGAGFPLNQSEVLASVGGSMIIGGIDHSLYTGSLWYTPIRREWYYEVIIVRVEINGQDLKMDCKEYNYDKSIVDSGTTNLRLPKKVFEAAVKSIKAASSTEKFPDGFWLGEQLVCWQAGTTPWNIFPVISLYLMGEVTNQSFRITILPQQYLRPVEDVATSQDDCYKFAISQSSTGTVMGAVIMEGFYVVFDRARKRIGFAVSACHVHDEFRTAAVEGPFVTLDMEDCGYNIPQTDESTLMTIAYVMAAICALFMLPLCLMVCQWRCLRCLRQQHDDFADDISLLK

Structure (SMILES) | IC50 [1] | other results
NC1=N[C@]2(CO1)c1cc(OCC3CCCO3)ccc1Oc1ccc(-c3cccnc3)cc12 (stereo partly drawn) [Example 99, (4S)-2′-(3-pyridinyl)-7′-(tetrahydro-2-furanylmethoxy)spiro[1,3-oxazole-4,9′-xanthen]-2-amine] | – | IC50 (Table II): < 100 nM
Cc1ccc2c(c1)Oc1ccc(-c3ccc(OC(F)(F)F)cc3)cc1C21COC(N)=N1 (stereo not drawn) [Example 36, 6′-methyl-2′-(4-(trifluoromethoxy)phenyl)spiro[1,3-oxazole-4,9′-xanthen]-2-amine] | – | IC50 (Table 1): > 5000 nM
NC1=N[C@]2(CO1)c1cc(OC[C@H]3CCCO3)ccc1Oc1ccc(-c3cncnc3)cc12 [Example 106, (4S)-2′-(5-pyrimidinyl)-7′-((2R)-tetrahydro-2-furanylmethoxy)spiro[1,3-oxazole-4,9′-xanthen]-2-amine] | – | IC50 (Table II): < 100 nM
NC1=N[C@]2(CO1)c1cc(OCC3CCCCO3)ccc1Oc1ccc(-c3cncnc3)cc12 (stereo partly drawn) [Example 107, (4S)-2′-(5-pyrimidinyl)-7′-(tetrahydro-2H-pyran-2-ylmethoxy)spiro[1,3-oxazole-4,9′-xanthen]-2-amine] | – | IC50 (Table II): < 100 nM
NC1=N[C@@]2(CO1)c1cc(-c3cncc(Cl)c3)ccc1Oc1cnc(-c3cccnc3)cc12 [compound 303] | < 100 nM | –
CC(C)(C)C[C@H](O)c1ccc2c(c1)[C@]1(COC(N)=N1)c1cc(-c3cncnc3)ccc1O2 [Example 49, (1S)-1-((4S)-2-amino-7′-(5-pyrimidinyl)spiro[1,3-oxazole-4,9′-xanthen]-2′-yl)-3,3-dimethyl-1-butanol] | – | IC50 (Table II): < 100 nM
NC1=N[C@]2(CO1)c1cc(OC[C@@H]3CC3(F)F)ccc1Oc1ccc(-c3cncnc3)cc12 [Example 97, (4S)-2′-(((1S)-2,2-difluorocyclopropyl)methoxy)-7′-(5-pyrimidinyl)spiro[1,3-oxazole-4,9′-xanthen]-2-amine] | – | IC50 (Table II): < 100 nM
NC1=N[C@@]2(CO1)c1cc(-c3cncc(Cl)c3)ccc1Oc1cnc(C3=CCOCC3)cc12 [compound 309] | < 100 nM | –
NC1=N[C@@]2(CO1)c1cc(-c3cncc(Cl)c3)ccc1Oc1cnc(-c3ccncc3)cc12 [compound 302] | < 100 nM | –
NC1=N[C@@]2(CO1)c1cc(-c3ccc(F)nc3)ccc1Oc1cnc(Cl)cc12 [compound 310] | 100 to 1000 nM | –
NC1=N[C@]2(CO1)c1cc(OC[C@H]3CC3(F)F)ccc1Oc1ccc(-c3cncnc3)cc12 [Example 98, (4S)-2′-(((1R)-2,2-difluorocyclopropyl)methoxy)-7′-(5-pyrimidinyl)spiro[1,3-oxazole-4,9′-xanthen]-2-amine] | – | IC50 (Table II): < 100 nM
Cc1cncc(-c2ccc3c(c2)[C@@]2(COC(N)=N2)c2cc(-c4ccnc(C)c4)ncc2O3)c1 [compound 307] | < 100 nM | –
NC1=N[C@@]2(CO1)c1cc(-c3ccc(F)nc3)ccc1Oc1cnc(-c3ccnc(F)c3)cc12 [compound 311] | < 100 nM | –
NC1=N[C@]2(CO1)c1cc(C#CC3CCCC3)ccc1Oc1ccc(-c3cncnc3)cc12 [Example 95, (4R)-2′-(cyclopentylethynyl)-7′-(5-pyrimidinyl)spiro[1,3-oxazole-4,9′-xanthen]-2-amine] | – | IC50 (Table II): < 100 nM
NC1=NC2(CO1)c1cc(Cl)ccc1Oc1ccc(-c3cncnc3)cc12 (stereo not drawn) [Example 13, 2′-chloro-7′-(5-pyrimidinyl)spiro[1,3-oxazole-4,9′-xanthen]-2-amine] | – | IC50 (Table 1): 100 to 1000 nM
Cc1cncc(-c2ccc3c(c2)[C@@]2(COC(N)=N2)c2cc(-c4ccncc4)ncc2O3)c1 [compound 305] | < 100 nM | –
Cc1cccc(-c2ccc3c(c2)C2(COC(N)=N2)c2ccc(C)cc2O3)c1 (stereo not drawn) [Example 33, 6′-methyl-2′-(3-methylphenyl)spiro[1,3-oxazole-4,9′-xanthen]-2-amine] | – | IC50 (Table 1): > 5000 nM
NC1=N[C@]2(CO1)c1cc(C(=O)CC3CCCC3)ccc1Oc1ccc(-c3cncnc3)cc12 [Example 102, 1-((4S)-2-amino-7′-(5-pyrimidinyl)spiro[1,3-oxazole-4,9′-xanthen]-2′-yl)-2-cyclopentylethanone] | – | IC50 (Table II): < 100 nM
NC1=N[C@@]2(CO1)c1cc(-c3cccnc3F)ccc1Oc1cnc(-c3ccc(F)nc3)cc12 [compound 312] | < 100 nM | –
NC1=N[C@]2(CO1)c1cc(C#CC3CC3)ccc1Oc1ccc(-c3cncnc3)cc12 [Example 101, (4R)-2′-(cyclopropylethynyl)-7′-(5-pyrimidinyl)spiro[1,3-oxazole-4,9′-xanthen]-2-amine] | – | IC50 (Table II): < 100 nM
COc1ccc2c(c1)[C@@]1(COC(N)=N1)c1cc(-c3cncnc3)ccc1O2 [Example 31, (4R)-2′-methoxy-7′-(5-pyrimidinyl)spiro[1,3-oxazole-4,9′-xanthen]-2-amine] | – | IC50 (Table 1): > 5000 nM
NC1=N[C@]2(CO1)c1cc(OC[C@@H]3CCCO3)ccc1Oc1ccc(-c3cncnc3)cc12 [Example 105, (4S)-2′-(5-pyrimidinyl)-7′-((2S)-tetrahydro-2-furanylmethoxy)spiro[1,3-oxazole-4,9′-xanthen]-2-amine] | – | IC50 (Table II): < 100 nM
Cc1ccc2c(c1)Oc1ccc(-c3ccccc3C)cc1C21COC(N)=N1 (stereo not drawn) [Example 34, 6′-methyl-2′-(2-methylphenyl)spiro[1,3-oxazole-4,9′-xanthen]-2-amine] | – | IC50 (Table 1): > 5000 nM
NC1=N[C@@]2(CO1)c1cc(C#CC3CC3)ccc1Oc1ccc(OCC3CCCO3)cc12 (stereo partly drawn) [Example 103, (4S)-2′-(cyclopropylethynyl)-7′-(tetrahydro-2-furanylmethoxy)spiro[1,3-oxazole-4,9′-xanthen]-2-amine] | – | IC50 (Table II): < 100 nM
Cc1cncc(-c2ccc3c(c2)[C@@]2(COC(N)=N2)c2cc(-c4cccnc4)ncc2O3)c1 [compound 306] | < 100 nM | –
Cc1cncc(-c2ccc3c(c2)[C@@]2(COC(N)=N2)c2cc(C4CCOCC4)ncc2O3)c1 [compound 308] | < 100 nM | –
COc1ccc2c(c1)[C@@]1(COC(N)=N1)c1cc(N3CCOCC3)cc(F)c1O2 [compound 304] | 100 to 1000 nM | –

More lines, main results first:

IC50 [1] | Structure (SMILES) | other results
< 100 nM | CC(C)(C)C#Cc1cnc2c(c1)[C@]1(COC(N)=N1)c1cc(OCC(C)(C)C#N)ccc1O2 [compound 319] | –
< 100 nM | CC(C)(C#Cc1cnc2c(c1)[C@]1(COC(N)=N1)c1cc(-c3cccnc3)ccc1O2)N1CCC1 [compound 320] | –
< 100 nM | CC1(C#Cc2cnc3c(c2)[C@]2(COC(N)=N2)c2cc(-c4cccc(Cl)c4)ccc2O3)COC1 [compound 314] | –
< 100 nM | CC(C)(C#N)COc1ccc2c(c1)[C@@]1(COC(N)=N1)c1cc(-c3ccc(OC(F)(F)F)cc3)cnc1O2 [compound 342] | –
< 100 nM | CC(C)(C)C#Cc1cnc2c(c1)[C@]1(COC(N)=N1)c1cc(-c3cncc(C#N)c3)ccc1O2 [compound 317] | –
< 100 nM | Cc1cc(-c2cc3c(cn2)Oc2ccc(-c4ccc(F)nc4)cc2[C@@]32COC(N)=N2)ccn1 [compound 313] | –
< 100 nM | COc1ccc(-c2cnc3c(c2)[C@]2(COC(N)=N2)c2cc(OCC(C)(C)C#N)ccc2O3)cn1 [compound 341] | –
< 100 nM | CC1(C#Cc2cnc3c(c2)[C@]2(COC(N)=N2)c2cc(-c4cccnc4)ccc2O3)COC1 [compound 315] | –
< 100 nM | NC1=N[C@@]2(CO1)c1cc(-c3c(F)ccnc3F)ccc1Oc1ncc(C3=CCOCC3)cc12 [compound 321] | –
< 100 nM | Cn1cc(-c2cnc3c(c2)[C@]2(COC(N)=N2)c2cc(-c4cccnc4F)ccc2O3)cn1 [compound 346] | –
< 100 nM | CC1(C)CCN(c2cnc3c(c2)[C@]2(COC(N)=N2)c2cc(-c4cccnc4F)ccc2O3)C1 [compound 316] | –
< 100 nM | COc1ccc(-c2cnc3c(c2)[C@]2(COC(N)=N2)c2cc(-c4cccnc4F)ccc2O3)cn1 [compound 344] | –
< 100 nM | NC1=N[C@@]2(CO1)c1cc(-c3cccc(Cl)c3)ccc1Oc1ncc(-c3ccncc3)cc12 [compound 345] | –
< 100 nM | CC(C)(C)C#Cc1cnc2c(c1)[C@]1(COC(N)=N1)c1cc(-c3cccc(C#N)c3)ccc1O2 [compound 318] | –
< 100 nM | Cc1ccc(-c2cnc3c(c2)[C@]2(COC(N)=N2)c2cc(-c4cccnc4F)ccc2O3)cn1 [compound 339] | –
< 100 nM | CC(C)(C)COc1cnc2c(c1)[C@]1(COC(N)=N1)c1cc(C#CC3(C)COC3)ccc1O2 [compound 323] | –
< 100 nM | NC1=N[C@@]2(CO1)c1cc(-c3cccc(Cl)c3)ccc1Oc1ncc(C3=CCOCC3)cc12 [compound 322] | –
< 100 nM | CC(C)(C#N)COc1ccc2c(c1)[C@@]1(COC(N)=N1)c1cc(-c3ccc(C#N)cc3)cnc1O2 [compound 340] | –
